Experiment: Human HepG2 cell viability assay in 384 well format
Type: toxicity, cell-based
Parameters: dose 125 nL, time 70.5 hour; cytotoxicity at 70.5 h: concentration not given beside the values
Settings: HepG2 cells, read-out: Inhibition

SMILES	cytotoxicity at 70.5 h [%]
O=C(CN1CCN(c2ccc3nncn3n2)CC1)NC1CCCC1	1.25
O=C(CC1CCCC1)N1C[C@@H]2CN(Cc3ccoc3)CCO[C@@H]2C1	-11.5
O=C(NCC(F)(F)F)C(c1cccnc1)N1CCOCC1 (stereo not given)	-5.8
COC(=O)C1CN(Cc2nc(C(C)(C)C)cs2)C[C@@H](C)O1 (stereo not given in full)	-7.31
CN1CCOC(CNCc2cccc(OC(F)(F)F)c2)C1 (stereo not given)	-11.5
CC(C)CNC(=O)[C@H]1CCS(=O)(=O)[C@@H]2CN(CC(C)C)C[C@H]12	-1.81
CN(C)C(CNCc1nc(-c2ccsc2)no1)c1ccco1 (stereo not given)	-16.8
CCC(C)NC(=O)CCn1ccc(C)n1 (stereo not given)	-6.22
Cc1ccc(C2CN(CCS(C)(=O)=O)CCO2)c(C)c1 (stereo not given)	-12.5
CCOC(=O)N1CCN(C(=O)c2sc(-c3ccc(F)cc3)nc2C)CC1	-8.29
CN(CC1CCCO1)c1nc(-c2cccnc2)nc2c1CCNCC2 (stereo not given)	-10.6
C[C@@H]1CN(C2CCOC2)C[C@]12CCN(c1cccnc1)C2=O (stereo not given in full)	-9.89
O=C1COC2(CCN(Cc3ccco3)CC2)CN1Cc1cccnc1	-7.11
C=Cn1ncc(CN2CCc3nc(-c4ccncc4)nc(O)c3C2)c1C	-4.39
Cn1c(=O)oc2cc(S(=O)(=O)N3CCC(c4ccccc4)C3)c(Cl)cc21 (stereo not given)	25
CNc1ncccc1C(=O)N1CCc2c(nc(N)[nH]c2=O)C1	-3.13
Cc1ccccc1CS(=O)(=O)CC(=O)N(C)Cc1ccccc1F	-1.24
O=C(CCc1ccc(Cl)cc1)NC1CCN(c2cccc(F)c2)CC1	10.5
CC(C1CC1)N(C)Cc1nnc(-c2ccc(Br)s2)o1 (stereo not given)	-2.75
O=C(O)c1cc(S(=O)(=O)Nc2cnn(C3CCOCC3)c2)ccc1F	-6.44
O=C(N[C@@H]1CN(Cc2cccs2)[C@@H]2CCCO[C@@H]21)C1CC1	-10.5
c1ccc2oc(CCCN3CCCC(Cn4cncn4)C3)nc2c1 (stereo not given)	19.8

SMILES	cytotoxicity at 70.5 h [%]
COCCNC(=O)NC1(c2nc(-c3ccncc3)no2)CCCCC1	5.97
CNc1nc(C2CCCN(C(=O)CNC(C)=O)C2)nc2c1CN(C)CC2 (stereo not given)	11.4
CN1CCN(C(=O)CCn2ncc3ccccc32)CC(C(N)=O)C1 (stereo not given)	-6.19
Clc1ccc2c(c1)C=C(CNC1CCc3ncnn3C1)CO2 (stereo not given)	-7.55
CCCNC(=O)Nc1ccn(CCCOC)n1	9.71
CN(C)S(=O)(=O)N1CC[C@]2(C[C@H](OCc3ccccn3)CO2)C1	-0.384
CC(=O)Nc1nc(C(=O)NCc2ccnc(N3CCCC3)c2)cs1	-6.6
OC(CNCCn1cccn1)COc1ccc(F)cc1 (stereo not given)	5.18
CC(C)N(C)Cc1cnc2n1CCN(Cc1ccsc1)C2	-8.42
Cc1ccc(CN2Cc3nccn3CC(Cn3cccn3)C2)s1 (stereo not given)	-4.41
Cc1nc(N(C)C)nc(N2CCC3(CC2)CNC(=O)O3)c1C	-5.15
CN1CCC(NC(=O)Cc2csc(C(C)(C)C)n2)CC1	-10.5
COc1ccc(CN2CCOC[C@H](OCc3ccccc3)C2)cc1	-8.76
O=C(CCN1CCCCO1)NCCSc1cnn[nH]1	-3.27
CN1CCC(Cc2nc(-c3ccnn3C)n(Cc3ccccc3)n2)CC1	12.7
O=C(NCC1CCCO1)c1nc2c(s1)CCCN2C(=O)C1CC1 (stereo not given)	-9.75
COc1ccc(CN2C[C@@H]3COC[C@H](N4CCN(C)CC4)[C@@H]3C2)cc1	-5.19
Cc1c(C(=O)NCC(C)C)nnn1-c1cccc2c1CCN(C)C2	1.85
CCc1ccc(CN2CCc3[nH]nc(C(=O)N4CCNC(=O)C4)c3C2)o1	-11.8
COc1cc(-c2cccc3c2OC(CN)C3)ccc1O (stereo not given)	14.1
O=C(C1CCOCC1)N1CCN2C(=O)N(Cc3ccc(F)cc3)C[C@H]2C1	-3.96
Cc1cc(CN2CCN(CC3CC3)[C@@H]3CS(=O)(=O)C[C@@H]32)ccc1F	6.58

SMILES	cytotoxicity at 70.5 h [%]
CN(C)C(=O)CN1C[C@@H]2CC[C@H](C1)N(C(=O)CCCn1cncn1)C2	-8.72
COCC(C)NC(=O)CN1CCC(C)CC1 (stereo not given)	-20.8
O=C(c1cncs1)N1CCc2[nH]nc(Nc3ccccc3)c2C1	-3.16
Cc1cnn(CC2CCCCN2C(=O)c2cccnc2N(C)C)c1 (stereo not given)	9.64
COc1cccc(CN2C[C@@H]3COC[C@]3(CNC(=O)C3CC3)C2)c1	-9.15
O=C(NCc1ccccc1CN1CCC(O)CC1)Nc1ccccn1	-3.22
CC(=O)N1CCn2c(nnc2C2CCCCN2C(C)=O)C1 (stereo not given)	-4.85
COc1ccc(-c2noc(CNC(C)Cn3cccn3)n2)c(OC)c1 (stereo not given)	22.3
COCCCN1C(=O)CC[C@H]2CN(Cc3cc4ccccc4o3)CC[C@H]21	-1.98
CN(C)CCCNC(=O)c1ccccc1NC(=O)c1cc(Cl)ccc1Cl	-13.9
CN(c1cccnc1N1CCCC1)S(=O)(=O)c1cccnc1	3.33
CN1CCC2(CCN(CC3CC3)CC2)C1=O	-7.27
O=C(NC[C@H]1OC[C@@H](NC2CCC(F)(F)CC2)[C@@H]1O)C1CCCC1	-10.5
Cc1nc(CN(C)C2CCN(Cc3nc4ccccc4n3C)C2)no1 (stereo not given)	-2.1
CC(C)COCC1CN(Cc2cnn(C)c2)Cc2ncn(C)c21 (stereo not given)	-7.87
CC(C)CNC(=O)[C@H]1CCS(=O)(=O)[C@@H]2CN(Cc3ccc(Cl)cc3)C[C@H]12	3.8
CCc1noc(CN(C)C(=O)c2ccnc(OC3CCC3)c2)n1	-0.589
COCCN(Cc1ccc(F)cc1Cl)C(=O)c1ccc(=O)[nH]n1	-3.15
O=C(Cc1cccs1)N1Cc2nc(COCC3CC3)oc2C1	0.985
CC(C)NC(=O)[C@@H]1CC[C@@H]2[C@@H](CCN2Cc2ccc3ccccc3n2)O1	-8.11
COc1cc(O)ccc1CN1CCN(C2CCc3ccccc3C2)CC1 (stereo not given)	-3.26
CN(C)C(=O)COCc1cncc2c1CCN(C1CCOCC1)C2	-7.93

SMILES	cytotoxicity at 70.5 h [%]
CCCn1cnnc1CNC(=O)C1COc2ccc(OC)cc2C1 (stereo not given)	20.1
CNC(=O)c1cccc(CN2CCN(c3ccncc3)CC2)c1	0.282
O=C([C@H]1CCCO1)N1CCC2(CC1)Cc1ccccc1CNC2=O	3.51
CC(Cn1cccn1)NCc1nc(-c2ccc3c(c2)OCO3)no1 (stereo not given)	13
Cc1noc(C)c1CC(=O)NCCN1CCN(S(C)(=O)=O)CC1	0.0227
CCN(CC)Cc1ccccc1NC(=O)N(C)Cc1ccc(OC)cc1	-15.6
CC(C)c1cc(C(=O)N2CCCC(n3cncn3)C2)n[nH]1 (stereo not given)	6.33
c1csc(-c2noc(CN3CCc4cncnc4C3)n2)c1	-8.24
C/C=C(\C)CN1C[C@@H](NC(=O)c2ccc(O)c(Cl)c2)C[C@H]1C(=O)NCC	-11
O=C(c1cn(Cc2ccccc2)c2ncccc12)N1CCOCC1	2.42
CCC(C)(C)n1nnnc1C(c1cccs1)N1CCc2ccccc21 (stereo not given)	-1.64
CN(C)C(=O)c1cccc(CN2CCOC(Cn3cncn3)C2)c1 (stereo not given)	-4.81
Cc1nc(COCC2CN(C(N)=O)Cc3nccn3C2)cs1 (stereo not given)	-5.1
CN1CCN(S(=O)(=O)c2ccc(Sc3nccn3C)nc2)CC1	21.6
CC(C)c1nn(C)c(N(C)C)c1CNCc1cccc2cccnc12	5.24
Cc1nc(CN2CCC(c3cc(N4CCCC4)ncn3)CC2)cs1	4.68
CC(C)C(O)CCNC(=O)Nc1cc(F)ccc1-n1cccn1 (stereo not given)	14.9
CC(C)c1nnc2n1CCN(C(=O)c1cccc(OCC(N)=O)c1)C2	-2.06
O[C@H]1[C@H](n2cc(CN3CCCC3)nn2)c2ccccc2C12CCNCC2	-7.31
CCC(CNS(N)(=O)=O)Oc1ccccc1F (stereo not given)	-7.45
O=C(O)[C@]12CCCN(Cc3ccsc3)C[C@H]1CN(c1ccccn1)C2	13.5
CC(C)(C)CC(=O)NCCn1nc(C2CCNC2)c2cccnc21 (stereo not given)	-6.02

SMILES	cytotoxicity at 70.5 h [%]
CCc1ccc(C(=O)N2CCCN(Cc3csc(CC)n3)CC2)o1	6.45
CC(=O)N1CCN(C(=O)NCCCN(C(C)C)S(C)(=O)=O)CC1	-8.44
CCCc1c(C(=O)N2CCN(c3nccc(OC)n3)CC2)cnn1C	-5.72
CC(C)c1ccc(/C=C/CC(=O)NC2CCN(C(N)=O)CC2)cc1	-9.67
O=C(COc1cccc2c1CCC2=O)NCc1ccccc1Cl	-10.6
CCN(C(=O)c1ccccc1I)C1CC(=O)NC1=O (stereo not given)	4.4
CCOCCCC(=O)Nc1c(-c2ccc(F)cc2)ncn1C	0.124
CC(C)CC(C)NCc1cccnc1N1CCN(c2ccccn2)CC1 (stereo not given)	-12.3
Cc1cc(C)n(Cc2cc(C(=O)N[C@H]3CCCCNC3=O)n[nH]2)n1	-3.71
Cc1ccccc1OCCN1CCCC(c2cc(C(N)=O)[nH]n2)C1 (stereo not given)	-6.71
C1CC(c2noc(C3CC3)n2)N(Cc2nnc(C3CC3)o2)C1 (stereo not given)	-7.72
CCC1=N[C@@]2(CC[C@@H]3CN(C(=O)Nc4ccccc4)C[C@@H]32)C(=O)N1C	-85.8
CCc1nccc(CN2CCCC(CNC(=O)c3occc3C)C2)n1 (stereo not given)	-10.1
CCOC(=O)N1CCN(c2nc(C)ncc2CC)CC1	1.02
COC(=O)N1CCC(Oc2ccc(C(=O)NCCN(C)C)cc2Cl)CC1	-8.08
CC(C)c1nn(C)c(N(C)C)c1CNCc1cccc(CN(C)C)c1	0.875
O=C1CC(NCc2cccc(O)c2)CN1CCc1cccc(Cl)c1 (stereo not given)	14.8
O=C(CN1CCCCC1Cn1cccn1)NC1CCOCC1 (stereo not given)	-6.42
CNc1cc(C)nc(N2CCC3(CC2)[C@H](O)C[C@@H]3OCCN(C)C)n1	-1.9
Cc1cnc(N2CC[C@H]3[C@@H]2CCC(=O)N3c2ccccc2)nc1	5.23
O=C1N(C2CCCCC2)C[C@H]2CN(C3CCC3)CCN12	9.88
COCCN1CC[C@@H]2OC[C@H](C(=O)N(C)Cc3ccccn3)C[C@@H]2C1	-3.83

Reference: ChEMBL document CHEMBL3507680, “University of Dundee, Gates Library screen for HepG2 cell viability”
